Patent publication US20110312962A1, “NOVEL 2-MORPHOLINO-3-AMIDO-PYRIDINE DERIVATIVES AND THEIR MEDICAL USE” (NEUROSEARCH A/S, priority 2008, published 2011)

Molecular target: T1, human Kv7.2+3 (Homo sapiens, UniProt O43525+O43526)
T1 construct: expressed in transfected cells; host or cells: HEK293
Test: FLIPR-based characterization of Kv7.2+3 modulators (thallium influx, BTC-AM)
Format: cell-based
Conditions: HEK293 cells over-expressing human Kv7.2+3; for EC50: Tl+ influx FLIPR, 50% of channel activity compared to retigabine control responses; for Emax: maximal response relative to the reference (retigabine) response, read-out: Efficacy
Method: This experiment determines the ability of a test compound to modulate the activity of Kv7.2+3 channels heterologously expressed in human HEK293 cells. The ability is determined relative to retigabine. The activity is determined using a standard thallium (I) sensitive assay, e.g. using a fluorometric method in a Fluorescent Image Plate Reader (FLIPR) as described below in more detail.
Full concentration/response curves are generated and EC50 values are calculated based on max values. EC50 values (Effective Concentration) represent the concentration of the test substance, at which 50% of the channel activity is obtained when compared to retigabine control responses. Maximal response determined relative to the reference (retigabine) response is calculated.
Human HEK293 cells over-expressing human Kv7.2+3 are grown in culture medium (DMEM supplemented with 10% foetal bovine serum), in polystyrene culture flasks ([…]) in a humidified atmosphere of 5% CO2 in air, at 37° C. Cell confluence should be 80-90% on day of plating. Cells are rinsed with 4 ml of PBS (phosphate buffered saline) and incubated 2 min with 1 ml of Trypsin-EDTA. After addition of 25 ml of culture medium cells are re-suspended by trituration with a 25 ml pipette.
The cells are seeded at a density of ˜3×10^6 cells/ml (25 μl/well) in black-walled, clear bottom, 384-well plates pre-treated with 0.01 g/l poly-D-lysin (20 μl/well for 30 min). Plated cells were allowed to proliferate for 24 h before loading with dye.
BTC-AM (50 mg, Invitrogen) is added 25.5 μl DMSO. The BTC-AM stock solution (2 mM) is diluted to a final concentration of 2 μM in Cl^− free assay buffer (in mM: 140 Na^+-gluconate, 2.5 K^+-gluconate, 6 Ca2^+-gluconate, 1 Mg^2+ gluconate, 5 glucose, 10 HEPES, pH 7.3) containing 2 μM ouabain, 2 mM amaranth and 1 mM tartrazine.
The culture medium is aspirated from the wells, the cells are washed thrice in Cl^− free assay buffer, and 25 μl of the BTC-AM loading solution is added to each well. The cells are incubated at 37° C. for 60 min.
After the loading period, the TI^+-sensitive BTC fluorescence signal is measured over time using a FLIPR.
• Temperature: Room temp. • First addition: 12 μl test or control compound after 15 sec at a rate of 30 μl/sec and starting height of 20 μl • Second addition: 12 μl stimulus buffer (Cl^− free assay buffer supplemented with 1 mM TI2SO4, 5 mM K2SO4 as well as the quenchers amaranth (2 mM) and tartrazine (1 mM)) is added after an additional 3 minutes at a rate of 30 μl/sec and starting height of 30 μl • Reading intervals: First sequence—3 sec×5, 2 sec×24 and 5 sec×25 Second sequence—1 sec×5, 2 sec×24 and 5 sec×36 Addition plates (compound plate and stimulus plate) are placed in positions 2 and 3, respectively. Cell plates are placed in position 1 and run using the “KCNQ (two additions)” program. FLIPR will then take the appropriate measurements in accordance with the interval settings above. Fluorescence obtained after stimulation is corrected for the mean basal fluorescence (in Cl^− free assay buffer).
Full concentration/response curves are generated and EC50 values (“Effective Concentration”; the concentration at which 50% of the channel activity is obtained when compared to retigabine control responses) are calculated based on peak values. Maxi-mal response determined relative to the reference (retigabine) response is calculated.

Question: For `COc1cccc(CC(=O)Nc2ccc(NCc3ccc(F)cc3)nc2N2CCOCC2)c1` [Compound 2.6, N-[6-(4-Fluoro-benzylamino)-2-morpholin-4-yl-pyridin-3-yl]-2-(3-methoxy-phenyl)-acetamide], which EC50 is on record?
Answer: The EC50 was 330 nM.

Question: What about the Emax of the same molecule?
Answer: The Emax was 88%.

Question: What does the source list for `O=C(Cc1ccc(Cl)nc1)Nc1ccc(NCc2ccc(F)cc2)nc1N1CCOCC1` [Compound 2.14, 2-(6-chloro-3-pyridyl)-N-[6-[(4-fluorophenyl)-methylamino]-2-morpholino-3-pyridyl]acetamide]?
Answer: EC50: 900 nM; Emax: 80%

Question: For `O=C(Cc1cccc(F)c1)Nc1ccc(NCc2ccc(F)cc2)nc1N1CCOCC1` [Compound 2.10, N-[6-(4-Fluoro-benzylamino)-2-morpholin-4-yl-pyridin-3-yl]-2-(3-fluoro-phenyl)-acetamide], which EC50 is on record?
Answer: The EC50 was 35 nM.

Question: What about the Emax of the same molecule?
Answer: The Emax was 93%.

Question: Which EC50 does the source give for `CC(C)(Nc1ccc(NC(=O)Cc2cc(F)cc(F)c2)c(N2CCOCC2)n1)c1ccc(F)cc1` [Compound 2.2, 2-(3,5-Difluoro-phenyl)-N-{6-[1-(4-fluoro-phenyl)-1-methyl-ethylamino]-2-morpholin-4-yl-pyridin-3-yl}-acetamide] here?
Answer: The EC50 was 5400 nM.

Question: What about the Emax of the same molecule?
Answer: Its Emax is 86%.

Question: How did the EC50 turn out when `O=C(Cc1ccc(Cl)cc1Cl)Nc1ccc(NCc2ccc(F)cc2)nc1N1CCOCC1` [Compound 2.7] was run?
Answer: Its EC50 is 4100 nM.

Question: And the Emax?
Answer: The Emax was 47%.

Question: For `O=C(Cc1cccc(C(F)(F)F)c1)Nc1ccc(NCc2ccc(F)cc2)nc1N1CCOCC1` [Compound 2.8, N-[6-(4-Fluoro-benzylamino)-2-morpholin-4-yl-pyridin-3-yl]-2-(3-trifluoromethyl-phenyl)-acetamide], which EC50 is on record?
Answer: Its EC50 is 590 nM.

Question: What about the Emax of the same molecule?
Answer: The Emax was 87%.

Question: Which EC50 does the source give for `O=C(Cc1ccc(Cl)cc1)Nc1ccc(NCc2ccc(F)cc2)nc1N1CCOCC1` [Compound 2.11] here?
Answer: The EC50 was 230 nM.

Question: What about the Emax of the same molecule?
Answer: The Emax was 88%.

Question: For `O=C(Cc1ccccc1F)Nc1ccc(NCc2ccc(F)cc2)nc1N1CCOCC1` [Compound 2.9, N-[6-(4-Fluoro-benzylamino)-2-morpholin-4-yl-pyridin-3-yl]-2-(2-fluoro-phenyl)-acetamide], which EC50 is on record?
Answer: The EC50 was 210 nM.

Question: What about the Emax of the same molecule?
Answer: Its Emax is 86%.

Question: Which results are given for `COc1ccc(CC(=O)Nc2ccc(NCc3ccc(F)cc3)nc2N2CCOCC2)cc1` [Compound 2.5, N-[6-(4-Fluoro-benzylamino)-2-morpholin-4-yl-pyridin-3-yl]-2-(4-methoxy-phenyl)-acetamide]?
Answer: EC50: 840 nM; Emax: 98%

Question: Which results are given for `O=C(Cc1ccc2c(c1)OCO2)Nc1ccc(NCc2ccc(F)cc2)nc1N1CCOCC1` [Compound 2.4, 2-Benzo[1,3]dioxol-5-yl-N-[6-(4-fluoro-benzylamino)-2-morpholin-4-yl-pyridin-3-yl]-acetamide]?
Answer: EC50: 780 nM; Emax: 104%

Question: How did the EC50 turn out when `Cc1ccccc1C(=O)Nc1ccc(NCc2ccc(F)cc2)nc1N1CCOCC1` [Compound 2.3, N-[6-(4-Fluoro-benzylamino)-2-morpholin-4-yl-pyridin-3-yl]-2-methyl-benzamide] was run?
Answer: The EC50 was 10000 nM.

Question: What about the Emax of the same molecule?
Answer: Its Emax is 52%.

Question: What does the source list for `O=C(Nc1ccc(NCc2ccc(F)cc2)nc1N1CCOCC1)c1cccnc1F` [Compound 2.15, 2-fluoro-N-[6-[(4-fluorophenyl)-methylamino]-2-morpholino-3-pyridyl]-pyridine-3-carboxamide]?
Answer: EC50: 11000 nM; Emax: 28%

Question: For `O=C(COc1cccc(F)c1)Nc1ccc(NCc2ccc(F)cc2)nc1N1CCOCC1` [Compound 2.13, 2-(3-fluorophenoxy)-N-[6-[(4-fluorophenyl)-methylamino]-2-morpholino-3-pyridyl]acetamide], which EC50 is on record?
Answer: The EC50 was 6600 nM.

Question: And the Emax?
Answer: Its Emax is 86%.

Question: `O=C(CSc1ccc(F)cc1)Nc1ccc(NCc2ccc(F)cc2)nc1N1CCOCC1` [Compound 2.12] was tested. Which EC50 did it give?
Answer: Its EC50 is 2700 nM.

Question: What about the Emax of the same molecule?
Answer: The Emax was 87%.

Question: Which results are given for `O=C(Cc1cc(F)cc(F)c1)Nc1ccc(NCc2ccc(F)cc2)nc1N1CCOCC1` [Compound 2.1, 2-(3,5-Difluoro-phenyl)-N-[6-(4-fluoro-benzylamino)-2-morpholin-4-yl-pyridin-3-yl]-acetamide]?
Answer: EC50: 130 nM; Emax: 100%
